Non-standard residues stand in square brackets, D forms with d. Residues, ends and D or L forms follow the SMILES beside them. N(1S-Me-propyl)Gly = CC[C@H](C)NCC(=O)O; Nspe = C[C@H](NCC(=O)O)c1ccccc1; Nlys = NCCCCNCC(=O)O
Biological target: T1, Aβ fibrils (Homo sapiens, UniProt P05067)
T1 construct: aliquots of Aβ(1-40) monomer, purified via size exclusion chromatography on Superdex 75
Test: Dot blot assay with LOC antibody binding to Aβ fibrils
Assay type: biochemical
Protocol: The results of the ThT assay were confirmed using a dot blot assay with antibodies capable of binding to Aβ fibrils, but not Aβ monomers or pre-fibrils (LOC, available from Millipore). Thus, reduction of signal in the dot blot as compared to control is indicative of the peptoid blocking fibril formation. The intensity of the dot blot signal detecting the binding of the LOC antibody to the Aβ fibrils after incubation with a control was set to 100% to indicate maximal fibril formation. This can then be compared to the intensity of the LOC antibody dot blot signal after incubation of the Aβ with each of the peptoids. A reduction in the percent of antibody binding is indicative of inhibition of aggregation of Aβ in the assay. […] To control for the signal being at the maximum intensity parallel samples were diluted in half with 40 mM Tris buffer before being blotted (1:2). After 2 hours of incubation, none of the peptoids were capable of inhibiting aggregation of Aβ at a 1:1 dilution, likely because the antibody signal is too saturated to detect any effect of the peptoids.

T1 sequence (P05067 672-711): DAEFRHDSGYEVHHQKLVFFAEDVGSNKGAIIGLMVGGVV

## CC[C@H](C)N(CC(=O)N(CC(=O)N(CC(=O)N(CC(=O)N(CC(=O)N(CC(=O)N(CC(N)=O)[C@@H](C)c1ccccc1)[C@@H](C)c1ccccc1)[C@@H](C)CC)[C@@H](C)c1ccccc1)[C@@H](C)c1ccccc1)[C@@H](C)CC)C(=O)CNCCCCN [Peptoid 2] (H-[Nlys][N(1S-Me-propyl)Gly][N(1S-Me-propyl)Gly][Nspe][Nspe][N(1S-Me-propyl)Gly][Nspe][Nspe]-NH2)
Time 0 hr, dilution 1:1
  LOC antibody dot blot signal, percent of control (control = 100%): 73.03%
Time 0 hr, dilution 1:2
  LOC antibody dot blot signal, percent of control (control = 100%): 56.91%
Time 2 hr, dilution 1:1
  LOC antibody dot blot signal, percent of control (control = 100%): 108.61%
Time 2 hr, dilution 1:2
  LOC antibody dot blot signal, percent of control (control = 100%): 89.63%

Source: patent publication US8809275B2, “Peptoids and methods for treating alzheimer's disease” (The Board of Trustees of the University of Arkansas, priority 2011, dated 2014)
